{
  "source": "ChEMBL document CHEMBL1201862",
  "about": "“PubChem BioAssay data set” (2004)",
  "experiment_in_all_cases": "NCI anticancer screen, dose series, 48 h",
  "key": {"[1]": {"system": "HCC 2998"}, "[2]": {"system": "OVCAR-3"}, "[3]": {"system": "XF498"}, "[4]": {"system": "MOLT-4"}, "[5]": {"system": "OVCAR-5"}, "[6]": {"system": "HCT-116"}, "[7]": {"system": "SW-620"}, "[8]": {"system": "UO-31"}, "[9]": {"system": "HOP-18"}, "[10]": {"system": "IGROV-1"}, "[11]": {"system": "786-0"}, "[12]": {"system": "M19-MEL"}, "[13]": {"system": "SK-MEL-5"}, "[14]": {"system": "NCI-H226"}, "[15]": {"system": "ACHN"}, "[16]": {"system": "SR"}, "[17]": {"system": "Malme-3M"}, "[18]": {"system": "OVCAR-8"}, "[19]": {"system": "KM12"}, "[20]": {"system": "SN12C"}, "[21]": {"system": "A549"}, "[22]": {"system": "NCI-H460"}, "[23]": {"system": "HOP-62"}, "[24]": {"system": "UACC-62"}, "[25]": {"system": "NCI-H23"}, "[26]": {"system": "LXFL 529"}, "[27]": {"system": "HT-29"}, "[28]": {"system": "CAKI-1"}, "[29]": {"system": "UACC-257"}, "[30]": {"system": "COLO 205"}, "[31]": {"system": "SF-295"}, "[32]": {"system": "DMS-114"}, "[33]": {"system": "DMS-273"}, "[34]": {"system": "SNB-75"}, "[35]": {"system": "SF-539"}, "[36]": {"system": "RPMI-8226"}, "[37]": {"system": "HOP-92"}, "[38]": {"system": "SK-OV-3"}, "[39]": {"system": "NCI-H522"}, "[40]": {"system": "U-251"}, "[41]": {"system": "HCT-15"}, "[42]": {"system": "SK-MEL-2"}, "[43]": {"system": "M14"}, "[44]": {"system": "HL-60"}, "[45]": {"system": "SNB-78"}, "[46]": {"system": "RXF 393"}, "[47]": {"system": "EKVX"}, "[48]": {"system": "OVCAR-4"}, "[49]": {"system": "A498"}, "[50]": {"system": "K562"}, "[51]": {"system": "DLD-1"}, "[52]": {"system": "SF-268"}, "[53]": {"system": "KM-20L2"}, "[54]": {"system": "SNB-19"}, "[55]": {"system": "TK-10"}},
  "note": "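Five compound concentrations were applied to cells in 96-well plates for 48 hours; endpoints were derived by simple linear interpolation of the resulting dose-response curve. GI50 marks 50% less growth.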 Active and inactive are the calls of the source. No stated cut-off is given here; in the data, active = GI50 up to about 1.1 µM and inactive = higher.",
  "data": [
    {"smiles": "C[n+]1c2ccccc2c(CNCC(=O)O)c2ccccc21", "values": [
      {"measurement": "GI50", "setting": "[1]", "value": "5.92 µM (inactive)"},
      {"measurement": "GI50", "setting": "[2]", "value": "1.87 µM (inactive)"},
      {"measurement": "GI50", "setting": "[3]", "value": "2.14 µM (inactive)"},
      {"measurement": "GI50", "setting": "[4]", "value": "0.223 µM (active)"},
      {"measurement": "GI50", "setting": "[5]", "value": "15.2 µM (inactive)"},
      {"measurement": "GI50", "setting": "[6]", "value": "0.39 µM (active)"},
      {"measurement": "GI50", "setting": "[7]", "value": "0.571 µM (active)"},
      {"measurement": "GI50", "setting": "[8]", "value": "10.9 µM (inactive)"},
      {"measurement": "GI50", "setting": "[9]", "value": "10.3 µM (inactive)"},
      {"measurement": "GI50", "setting": "[10]", "value": "5.96 µM (inactive)"},
      {"measurement": "GI50", "setting": "[11]", "value": "1.17 µM (inactive)"},
      {"measurement": "GI50", "setting": "[12]", "value": "4.43 µM (inactive)"},
      {"measurement": "GI50", "setting": "[13]", "value": "3.98 µM (inactive)"},
      {"measurement": "GI50", "setting": "[14]", "value": "3.3 µM (inactive)"},
      {"measurement": "GI50", "setting": "[15]", "value": "0.61 µM (active)"},
      {"measurement": "GI50", "setting": "[16]", "value": "0.238 µM (active)"},
      {"measurement": "GI50", "setting": "[17]", "value": "11.9 µM (inactive)"},
      {"measurement": "GI50", "setting": "[18]", "value": "2.75 µM (inactive)"},
      {"measurement": "GI50", "setting": "[19]", "value": "0.452 µM (active)"},
      {"measurement": "GI50", "setting": "[20]", "value": "0.562 µM (active)"},
      {"measurement": "GI50", "setting": "[21]", "value": "3.76 µM (inactive)"},
      {"measurement": "GI50", "setting": "[22]", "value": "3.76 µM (inactive)"},
      {"measurement": "GI50", "setting": "[23]", "value": "6.27 µM (inactive)"},
      {"measurement": "GI50", "setting": "[24]", "value": "1.21 µM (inactive)"},
      {"measurement": "GI50", "setting": "[25]", "value": "6.95 µM (inactive)"},
      {"measurement": "GI50", "setting": "[26]", "value": "1.07 µM (active)"},
      {"measurement": "GI50", "setting": "[27]", "value": "0.711 µM (active)"},
      {"measurement": "GI50", "setting": "[28]", "value": "0.406 µM (active)"},
      {"measurement": "GI50", "setting": "[29]", "value": "10.9 µM (inactive)"},
      {"measurement": "GI50", "setting": "[30]", "value": "0.418 µM (active)"},
      {"measurement": "GI50", "setting": "[31]", "value": "5.07 µM (inactive)"},
      {"measurement": "GI50", "setting": "[32]", "value": "2.13 µM (inactive)"},
      {"measurement": "GI50", "setting": "[33]", "value": "0.646 µM (active)"},
      {"measurement": "GI50", "setting": "[34]", "value": "8.41 µM (inactive)"},
      {"measurement": "GI50", "setting": "[35]", "value": "2.12 µM (inactive)"},
      {"measurement": "GI50", "setting": "[36]", "value": "0.29 µM (active)"},
      {"measurement": "GI50", "setting": "[37]", "value": "0.929 µM (active)"},
      {"measurement": "GI50", "setting": "[38]", "value": "4.74 µM (inactive)"},
      {"measurement": "GI50", "setting": "[39]", "value": "0.137 µM (active)"},
      {"measurement": "GI50", "setting": "[40]", "value": "3.62 µM (inactive)"},
      {"measurement": "GI50", "setting": "[41]", "value": 0.805, "unit": "µM"},
      {"measurement": "GI50", "setting": "[42]", "value": "2.43 µM (inactive)"},
      {"measurement": "GI50", "setting": "[43]", "value": "3.97 µM (inactive)"},
      {"measurement": "GI50", "setting": "[44]", "value": "0.187 µM (active)"},
      {"measurement": "GI50", "setting": "[45]", "value": "11.3 µM (inactive)"},
      {"measurement": "GI50", "setting": "[46]", "value": "2.38 µM (inactive)"},
      {"measurement": "GI50", "setting": "[47]", "value": "2.56 µM (inactive)"},
      {"measurement": "GI50", "setting": "[48]", "value": "12.6 µM (inactive)"},
      {"measurement": "GI50", "setting": "[49]", "value": "2.61 µM (inactive)"},
      {"measurement": "GI50", "setting": "[50]", "value": "0.504 µM (active)"},
      {"measurement": "GI50", "setting": "[51]", "value": "0.659 µM (active)"},
      {"measurement": "GI50", "setting": "[52]", "value": "0.459 µM (active)"},
      {"measurement": "GI50", "setting": "[53]", "value": "0.327 µM (active)"},
      {"measurement": "GI50", "setting": "[54]", "value": "10.2 µM (inactive)"},
      {"measurement": "GI50", "setting": "[55]", "value": "0.708 µM (active)"}
    ]}
  ]
}
